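1) Cells in 96-well plates. 2) Compound, 48 h, 5 concentrations. 3) Linear interpolation between surrounding doses. 4) Unreached endpoint = highest concentration. Here, GI50 denotes the concentration required for 50% inhibition of growth. The concentration for full growth arrest is given as TGI.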
Legend:
Test in all cases: inhibition of tumour cell growth, NCI panel, 48 h
786-0 renal = tested on: 786-0 renal
A498 renal = tested on: A498 renal
A549 NSCLC = tested on: A549 NSCLC
ACHN renal = tested on: ACHN renal
BT-549 breast = tested on: BT-549 breast
CAKI-1 renal = tested on: CAKI-1 renal
COLO 205 colon = tested on: COLO 205 colon
DU-145 prostate = tested on: DU-145 prostate
EKVX NSCLC = tested on: EKVX NSCLC
HCC-2998 colon = tested on: HCC-2998 colon
HCT-15 colon = tested on: HCT-15 colon
HL-60(TB) leukemia = tested on: HL-60(TB) leukemia
HOP-62 NSCLC = tested on: HOP-62 NSCLC
HOP-92 NSCLC = tested on: HOP-92 NSCLC
HS 578T breast = tested on: HS 578T breast
K-562 leukemia = tested on: K-562 leukemia
KM12 colon = tested on: KM12 colon
LOX IMVI melanoma = tested on: LOX IMVI melanoma
M14 melanoma = tested on: M14 melanoma
MALME-3M melanoma = tested on: MALME-3M melanoma
MCF7 breast = tested on: MCF7 breast
MDA-MB-231 breast = tested on: MDA-MB-231 breast
MDA-MB-435 = tested on: MDA-MB-435
MOLT-4 leukemia = tested on: MOLT-4 leukemia
NCI-H226 lung = tested on: NCI-H226 lung
NCI-H23 lung = tested on: NCI-H23 lung
NCI-H460 lung = tested on: NCI-H460 lung
NCI-H522 lung = tested on: NCI-H522 lung
NCI/ADR-RES ovarian = tested on: NCI/ADR-RES ovarian
OVCAR-3 ovarian = tested on: OVCAR-3 ovarian
OVCAR-4 ovarian = tested on: OVCAR-4 ovarian
OVCAR-5 ovarian = tested on: OVCAR-5 ovarian
PC-3 prostate = tested on: PC-3 prostate
RXF 393 renal = tested on: RXF 393 renal
SF-268 CNS = tested on: SF-268 CNS
SF-295 CNS = tested on: SF-295 CNS
SF-539 CNS = tested on: SF-539 CNS
SK-MEL-28 melanoma = tested on: SK-MEL-28 melanoma
SK-MEL-5 melanoma = tested on: SK-MEL-5 melanoma
SK-OV-3 ovarian = tested on: SK-OV-3 ovarian
SN12C renal = tested on: SN12C renal
SNB-19 CNS = tested on: SNB-19 CNS
SNB-75 CNS = tested on: SNB-75 CNS
SW-620 colon = tested on: SW-620 colon
T-47D breast = tested on: T-47D breast
TK-10 renal = tested on: TK-10 renal
U251 CNS = tested on: U251 CNS
UACC-257 melanoma = tested on: UACC-257 melanoma
UACC-62 melanoma = tested on: UACC-62 melanoma
UO-31 renal = tested on: UO-31 renal

NCCCCCCCCCCCn1c2c(c3ccccc3c1=O)C(=O)c1ccccc1-2
GI50 (786-0 renal): 19.9 µM
TGI (786-0 renal): 46.9 µM
GI50 (A498 renal): 12.4 µM
TGI (A498 renal): 36.3 µM
GI50 (A549 NSCLC): 20 µM
TGI (A549 NSCLC): 74.7 µM
GI50 (ACHN renal): 3.11 µM
TGI (ACHN renal): 8.11 µM
GI50 (BT-549 breast): 20.3 µM
TGI (BT-549 breast): 41.4 µM
GI50 (CAKI-1 renal): 8.62 µM
TGI (CAKI-1 renal): 63.5 µM
GI50 (COLO 205 colon): 2.24 µM
TGI (COLO 205 colon): 5.45 µM
GI50 (DU-145 prostate): 4.6 µM
TGI (DU-145 prostate): 14.8 µM
GI50 (EKVX NSCLC): 22.5 µM
TGI (EKVX NSCLC): 45.7 µM
GI50 (HCC-2998 colon): 2.76 µM
TGI (HCC-2998 colon): 9.72 µM
GI50 (HCT-15 colon): 5.58 µM
TGI (HCT-15 colon): 19.4 µM
GI50 (HL-60(TB) leukemia): 6.28 µM
TGI (HL-60(TB) leukemia): 20.4 µM
GI50 (HOP-62 NSCLC): 2.19 µM
TGI (HOP-62 NSCLC): 4.83 µM
GI50 (HOP-92 NSCLC): 2.65 µM
TGI (HOP-92 NSCLC): 7.05 µM
GI50 (HS 578T breast): 22.4 µM
TGI (HS 578T breast): 52.6 µM
GI50 (K-562 leukemia): 2.31 µM
TGI (K-562 leukemia): 4.58 µM
GI50 (KM12 colon): 3.95 µM
TGI (KM12 colon): 37.8 µM
GI50 (LOX IMVI melanoma): 5 µM
TGI (LOX IMVI melanoma): 21.1 µM
GI50 (M14 melanoma): 5.92 µM
TGI (M14 melanoma): 25.7 µM
GI50 (MALME-3M melanoma): 16.7 µM
TGI (MALME-3M melanoma): 53.6 µM
GI50 (MCF7 breast): 8.63 µM
TGI (MCF7 breast): 37.9 µM
GI50 (MDA-MB-231 breast): 3.75 µM
TGI (MDA-MB-231 breast): 15.2 µM
GI50 (MDA-MB-435): 11 µM
TGI (MDA-MB-435): 47.9 µM
GI50 (MOLT-4 leukemia): 1.97 µM
TGI (MOLT-4 leukemia): 3.93 µM
GI50 (NCI-H226 lung): 25.2 µM
TGI (NCI-H226 lung): 54.3 µM
GI50 (NCI-H23 lung): 11.6 µM
TGI (NCI-H23 lung): 32 µM
GI50 (NCI-H460 lung): 4.26 µM
TGI (NCI-H460 lung): 29.7 µM
GI50 (NCI-H522 lung): 3.39 µM
TGI (NCI-H522 lung): 10.4 µM
GI50 (NCI/ADR-RES ovarian): 3.2 µM
TGI (NCI/ADR-RES ovarian): 17.6 µM
GI50 (OVCAR-3 ovarian): 2.1 µM
TGI (OVCAR-3 ovarian): 5.96 µM
GI50 (OVCAR-4 ovarian): 2.86 µM
TGI (OVCAR-4 ovarian): 8.63 µM
GI50 (OVCAR-5 ovarian): 2.48 µM
TGI (OVCAR-5 ovarian): 9.01 µM
GI50 (PC-3 prostate): 2.26 µM
TGI (PC-3 prostate): 7.12 µM
GI50 (RXF 393 renal): 24.3 µM
TGI (RXF 393 renal): 82.3 µM
GI50 (SF-268 CNS): 6.05 µM
TGI (SF-268 CNS): 49.1 µM
GI50 (SF-295 CNS): 2.7 µM
TGI (SF-295 CNS): 7.9 µM
GI50 (SF-539 CNS): 20.6 µM
TGI (SF-539 CNS): 40.2 µM
GI50 (SK-MEL-28 melanoma): 2.27 µM
TGI (SK-MEL-28 melanoma): 4.82 µM
GI50 (SK-MEL-5 melanoma): 10.3 µM
TGI (SK-MEL-5 melanoma): 29.5 µM
GI50 (SK-OV-3 ovarian): 14.3 µM
TGI (SK-OV-3 ovarian): 34.5 µM
GI50 (SN12C renal): 1.98 µM
TGI (SN12C renal): 3.61 µM
GI50 (SNB-19 CNS): 6.77 µM
TGI (SNB-19 CNS): 38.9 µM
GI50 (SNB-75 CNS): 2.95 µM
TGI (SNB-75 CNS): 7.68 µM
GI50 (SW-620 colon): 1.96 µM
TGI (SW-620 colon): 3.76 µM
GI50 (T-47D breast): 4.42 µM
TGI (T-47D breast): 26.6 µM
GI50 (TK-10 renal): 3.14 µM
TGI (TK-10 renal): 8.97 µM
GI50 (U251 CNS): 10.2 µM
TGI (U251 CNS): 27.1 µM
GI50 (UACC-257 melanoma): 27.7 µM
TGI (UACC-257 melanoma): 63.7 µM
GI50 (UACC-62 melanoma): 16.9 µM
TGI (UACC-62 melanoma): 35 µM
GI50 (UO-31 renal): 2.01 µM
TGI (UO-31 renal): 4.07 µM
